Columns and labels:
Assay in all cases: Test E greenhouse herbicide test, pre- and postemergence
Type in all cases: in vivo
[1] = tested on: nightshade (eastern black nightshade, Solanum ptycanthum); settings: Preemergence
Excerpt: (§1) Seeds of plant species selected from corn (Zea mays), soybean (Glycine max), velvetleaf (Abutilon theophrasti), lambsquarters (Chenopodium album), wild poinsettia (Euphorbia heterophylla), pigweed, palmer (palmer pigweed, Amaranthus palmeri), waterhemp (common waterhemp, Amaranthus rudis), surinam grass (Brachiaria decumbens), crabgrass, large (large crabgrass, Digitaria sanguinalis), crabgrass, Brazilian (Brazilian crabgrass, Digitaria horizontalis), panicum, fall (fall panicum, Panicum dichotomiflorum), foxtail, giant (giant foxtail, Setaria faberii), foxtail, green (green foxtail, Setaria viridis), goosegrass (Eleusine indica), johnsongrass (Sorghum halepense), ragweed (common ragweed, Ambrosia elatior), barnyardgrass (Echinochloa crus-galli), sandbur (southem sandbur, Cenchrus echinatus), arrowleaf sida (Sida rhombifolia), Italian ryegrass (Lolium multiflorum), dayflower (Virginia (VA) dayflower, Commelina virginica), field bindweed (Convolvulus arvensis), momingglory (Ipomoea coccinea), nightshade (eastern black nightshade, Solanum ptycanthum), kochia (Kochia scoparia), nutsedge, yellow (yellow nutsedge, Cyperus esculentus), horseweed (Conyza canadensis), and beggarticks (hairy beggarticks, Bidens pilosa), were planted into a silt loam soil and treated preemergence with test chemicals formulated in a non-phytotoxic solvent mixture which included a surfactant.
(§2) At the same time, plants from these crop and weed species and also waterhemp_RES1, (ALS & Triazine resistant common waterhemp, Amaranthus rudis), and waterhemp_RES2, (ALS & HPPD resistant common waterhemp, Amaranthus rudis) were planted in pots containing Redi-Earth® planting medium (Scotts Company, 14111 Scottslawn Road, Marysville, Ohio 43041) comprising spaghnum peat moss, vermiculite, wetting agent and starter nutrients were treated with postemergence applications of test chemicals formulated in the same manner. Plants ranged in height from 2 to 18 cm for postemergence treatments (1- to 4-leaf stage). Treated plants and controls were maintained in a greenhouse for 14 to 21 d, after which time all species were compared to controls and visually evaluated. Plant response ratings, summarized in Table E, are based on a scale of 0 to 100 where 0 is no effect and 100 is complete control. A dash (-) response means no test result.

soybean (Glycine max) = tested on: soybean (Glycine max)
Excerpt: as §1, §2

[2] = tested on: goosegrass (Eleusine indica); settings: Preemergence
Excerpt: as §1, §2

[3] = tested on: momingglory (Ipomoea coccinea); settings: Preemergence
Excerpt: as §1, §2

[4] = tested on: arrowleaf sida (Sida rhombifolia)
Excerpt: as §1, §2

[5] = tested on: field bindweed (Convolvulus arvensis)
Excerpt: as §1, §2

[6] = tested on: foxtail, giant (giant foxtail, Setaria faberii); settings: Preemergence
Excerpt: as §1, §2

[7] = tested on: ragweed (common ragweed, Ambrosia elatior); settings: Preemergence
Excerpt: as §1, §2

[8] = tested on: johnsongrass (Sorghum halepense); settings: Preemergence
Excerpt: as §1, §2

[9] = tested on: barnyardgrass (Echinochloa crus-galli)
Excerpt: as §1, §2

[10] = tested on: crabgrass, large (large crabgrass, Digitaria sanguinalis); settings: Preemergence
Excerpt: as §1, §2

[11] = tested on: surinam grass (Brachiaria decumbens); settings: Preemergence
Excerpt: as §1, §2

[12] = tested on: pigweed, palmer (palmer pigweed, Amaranthus palmeri)
Excerpt: as §1, §2

[13] = tested on: panicum, fall (fall panicum, Panicum dichotomiflorum)
Excerpt: as §1, §2

[14] = tested on: crabgrass, Brazilian (Brazilian crabgrass, Digitaria horizontalis)
Excerpt: as §1, §2

[15] = tested on: horseweed (Conyza canadensis); settings: Preemergence
Excerpt: as §1, §2

[16] = 62 g ai/ha, scale 0 to 100 (0 no effect, 100 complete control)
[17] = 125 g ai/ha, scale 0 to 100 (0 no effect, 100 complete control)
[18] = 16 g ai/ha, scale 0 to 100, 0 no effect, 100 complete control
[19] = 31 g ai/ha, scale 0 to 100, 0 no effect, 100 complete control
[20] = 250 g ai/ha, visual, scale 0 no effect to 100 complete control
[21] = 62 g ai/ha, Postemergence, scale 0 to 100 (0 no effect, 100 complete control)
[22] = 62 g ai/ha, Preemergence, scale 0 to 100 (0 no effect, 100 complete control)
[23] = 125 g ai/ha, Postemergence, scale 0 to 100 (0 no effect, 100 complete control)
[24] = 125 g ai/ha, Preemergence, scale 0 to 100 (0 no effect, 100 complete control)
[25] = 250 g ai/ha, Postemergence, scale 0 to 100 (0 no effect, 100 complete control)
[26] = Postemergence, 16 g ai/ha, visual, scale 0 no effect to 100 complete control
[27] = Postemergence, 31 g ai/ha, visual, scale 0 no effect to 100 complete control
[28] = Preemergence, 16 g ai/ha, scale 0 to 100, 0 no effect, 100 complete control
[29] = Preemergence, 31 g ai/ha, scale 0 to 100, 0 no effect, 100 complete control
[30] = Preemergence, 250 g ai/ha, visual, scale 0 no effect to 100 complete control
[31] = 125 g ai/ha, visual, scale 0 no effect to 100 complete control
[32] = Preemergence, 125 g ai/ha, visual, scale 0 no effect to 100 complete control

Cc1cc(C)c2sc(C)c(-c3c(O)c(C)nn(C)c3=O)c2c1 [Compound 2, 5-hydroxy-2,6-dimethyl-4-(2,5,7-trimethylbenzo[b]thien-3-yl)-3(2H)-pyridazinone]
Plant response rating, Nightshade [1, 16]: 98
Plant response rating, Nightshade [1, 17]: 98
Plant response rating, Nightshade [1, 18]: 35
Plant response rating, Nightshade [1, 19]: 75
Plant response rating, Nightshade [1, 20]: 100
Plant response rating, Soybean (soybean (Glycine max); [21]): 0
Plant response rating, Soybean (soybean (Glycine max); [22]): 0
Plant response rating, Soybean (soybean (Glycine max); [23]): 0
Plant response rating, Soybean (soybean (Glycine max); [24]): 15
Plant response rating, Soybean (soybean (Glycine max); [25]): 0
Plant response rating, Soybean (soybean (Glycine max); [26]): 0
Plant response rating, Soybean (soybean (Glycine max); [27]): 0
Plant response rating, Soybean (soybean (Glycine max); [28]): 0
Plant response rating, Soybean (soybean (Glycine max); [29]): 0
Plant response rating, Soybean (soybean (Glycine max); [30]): 40
Plant response rating, Goosegrass [2, 16]: 5
Plant response rating, Goosegrass [2, 18]: 0
Plant response rating, Goosegrass [2, 19]: 0
Plant response rating, Goosegrass [2, 31]: 25
Plant response rating, Goosegrass [2, 20]: 25
Plant response rating, Morningglory [3, 16]: 90
Plant response rating, Morningglory [3, 17]: 100
Plant response rating, Morningglory [3, 18]: 0
Plant response rating, Morningglory [3, 19]: 75
Plant response rating, Morningglory [3, 20]: 100
Plant response rating, Arrowleaf Sida [4, 21]: 30
Plant response rating, Arrowleaf Sida [4, 22]: 0
Plant response rating, Arrowleaf Sida [4, 23]: 35
Plant response rating, Arrowleaf Sida [4, 25]: 40
Plant response rating, Arrowleaf Sida [4, 26]: 0
Plant response rating, Arrowleaf Sida [4, 27]: 25
Plant response rating, Arrowleaf Sida [4, 28]: 0
Plant response rating, Arrowleaf Sida [4, 29]: 0
Plant response rating, Arrowleaf Sida [4, 32]: 0
Plant response rating, Arrowleaf Sida [4, 30]: 5
Plant response rating, Field Bindweed [5, 21]: 65
Plant response rating, Field Bindweed [5, 22]: 15
Plant response rating, Field Bindweed [5, 23]: 75
Plant response rating, Field Bindweed [5, 25]: 80
Plant response rating, Field Bindweed [5, 26]: 60
Plant response rating, Field Bindweed [5, 27]: 60
Plant response rating, Field Bindweed [5, 28]: 0
Plant response rating, Field Bindweed [5, 29]: 0
Plant response rating, Field Bindweed [5, 32]: 35
Plant response rating, Field Bindweed [5, 30]: 70
Plant response rating, Foxtail, Giant [6, 16]: 95
Plant response rating, Foxtail, Giant [6, 18]: 40
Plant response rating, Foxtail, Giant [6, 19]: 75
Plant response rating, Foxtail, Giant [6, 31]: 98
Plant response rating, Foxtail, Giant [6, 20]: 98
Plant response rating, Ragweed [7, 16]: 75
Plant response rating, Ragweed [7, 17]: 98
Plant response rating, Ragweed [7, 18]: 20
Plant response rating, Ragweed [7, 19]: 35
Plant response rating, Ragweed [7, 20]: 98
Plant response rating, Johnsongrass [8, 16]: 20
Plant response rating, Johnsongrass [8, 18]: 0
Plant response rating, Johnsongrass [8, 19]: 35
Plant response rating, Johnsongrass [8, 31]: 35
Plant response rating, Johnsongrass [8, 20]: 50
Plant response rating, Barnyardgrass [9, 21]: 25
Plant response rating, Barnyardgrass [9, 22]: 0
Plant response rating, Barnyardgrass [9, 23]: 30
Plant response rating, Barnyardgrass [9, 25]: 35
Plant response rating, Barnyardgrass [9, 26]: 20
Plant response rating, Barnyardgrass [9, 27]: 20
Plant response rating, Barnyardgrass [9, 28]: 0
Plant response rating, Barnyardgrass [9, 29]: 0
Plant response rating, Barnyardgrass [9, 32]: 25
Plant response rating, Barnyardgrass [9, 30]: 70
Plant response rating, Crabgrass, Large [10, 16]: 0
Plant response rating, Crabgrass, Large [10, 18]: 0
Plant response rating, Crabgrass, Large [10, 19]: 0
Plant response rating, Crabgrass, Large [10, 31]: 30
Plant response rating, Crabgrass, Large [10, 20]: 60
Plant response rating, Surinam Grass [11, 16]: 75
Plant response rating, Surinam Grass [11, 17]: 90
Plant response rating, Surinam Grass [11, 18]: 5
Plant response rating, Surinam Grass [11, 19]: 35
Plant response rating, Surinam Grass [11, 20]: 95
Plant response rating, Pigweed, Palmer [12, 21]: 5
Plant response rating, Pigweed, Palmer [12, 22]: 50
Plant response rating, Pigweed, Palmer [12, 23]: 5
Plant response rating, Pigweed, Palmer [12, 24]: 90
Plant response rating, Pigweed, Palmer [12, 25]: 35
Plant response rating, Pigweed, Palmer [12, 26]: 0
Plant response rating, Pigweed, Palmer [12, 27]: 50
Plant response rating, Pigweed, Palmer [12, 28]: 0
Plant response rating, Pigweed, Palmer [12, 29]: 20
Plant response rating, Pigweed, Palmer [12, 30]: 100
Plant response rating, Panicum, Fall [13, 21]: 70
Plant response rating, Panicum, Fall [13, 22]: 95
Plant response rating, Panicum, Fall [13, 23]: 85
Plant response rating, Panicum, Fall [13, 24]: 98
Plant response rating, Panicum, Fall [13, 25]: 90
Plant response rating, Panicum, Fall [13, 26]: 60
Plant response rating, Panicum, Fall [13, 27]: 70
Plant response rating, Panicum, Fall [13, 28]: 75
Plant response rating, Panicum, Fall [13, 29]: 85
Plant response rating, Panicum, Fall [13, 30]: 100
Plant response rating, Crabgrass, Brazil [14, 21]: 0
Plant response rating, Crabgrass, Brazil [14, 22]: 60
Plant response rating, Crabgrass, Brazil [14, 23]: 10
Plant response rating, Crabgrass, Brazil [14, 25]: 15
Plant response rating, Crabgrass, Brazil [14, 26]: 0
Plant response rating, Crabgrass, Brazil [14, 27]: 10
Plant response rating, Crabgrass, Brazil [14, 28]: 0
Plant response rating, Crabgrass, Brazil [14, 29]: 35
Plant response rating, Crabgrass, Brazil [14, 32]: 50
Plant response rating, Crabgrass, Brazil [14, 30]: 100

Cc1cc(C)c2ccccc2c1-c1c(O)c(C)nn(C)c1=O [Compound 21]
Plant response rating, Soybean (soybean (Glycine max); [22]): 35
Plant response rating, Soybean (soybean (Glycine max); [24]): 35
Plant response rating, Soybean (soybean (Glycine max); [29]): 35
Plant response rating, Goosegrass [2, 16]: 95
Plant response rating, Goosegrass [2, 19]: 90
Plant response rating, Goosegrass [2, 31]: 95
Plant response rating, Morningglory [3, 16]: 98
Plant response rating, Morningglory [3, 17]: 100
Plant response rating, Morningglory [3, 19]: 90
Plant response rating, Arrowleaf Sida [4, 22]: 0
Plant response rating, Arrowleaf Sida [4, 29]: 0
Plant response rating, Arrowleaf Sida [4, 32]: 50
Plant response rating, Field Bindweed [5, 22]: 95
Plant response rating, Field Bindweed [5, 29]: 35
Plant response rating, Field Bindweed [5, 32]: 98
Plant response rating, Foxtail, Giant [6, 16]: 98
Plant response rating, Foxtail, Giant [6, 19]: 95
Plant response rating, Foxtail, Giant [6, 31]: 100
Plant response rating, Ragweed [7, 16]: 98
Plant response rating, Ragweed [7, 17]: 100
Plant response rating, Ragweed [7, 19]: 95
Plant response rating, Johnsongrass [8, 16]: 20
Plant response rating, Johnsongrass [8, 31]: 60
Plant response rating, Barnyardgrass [9, 22]: 70
Plant response rating, Barnyardgrass [9, 29]: 40
Plant response rating, Barnyardgrass [9, 32]: 90
Plant response rating, Crabgrass, Large [10, 16]: 85
Plant response rating, Crabgrass, Large [10, 19]: 65
Plant response rating, Crabgrass, Large [10, 31]: 100
Plant response rating, Surinam Grass [11, 16]: 100
Plant response rating, Surinam Grass [11, 17]: 100
Plant response rating, Surinam Grass [11, 19]: 95
Plant response rating, Pigweed, Palmer [12, 22]: 70
Plant response rating, Pigweed, Palmer [12, 24]: 98
Plant response rating, Pigweed, Palmer [12, 29]: 65
Plant response rating, Panicum, Fall [13, 22]: 100
Plant response rating, Panicum, Fall [13, 24]: 100
Plant response rating, Panicum, Fall [13, 29]: 100
Plant response rating, Horseweed [15, 16]: 100
Plant response rating, Horseweed [15, 19]: 100
Plant response rating, Horseweed [15, 31]: 100
Plant response rating, Crabgrass, Brazil [14, 22]: 98
Plant response rating, Crabgrass, Brazil [14, 29]: 90
Plant response rating, Crabgrass, Brazil [14, 32]: 100
